ChEMBL document CHEMBL1201862, “PubChem BioAssay data set” (2004)
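A five-concentration, 48-hour dose response in 96-well plates underlies each endpoint, interpolated linearly between surrounding concentrations. GI50 marks 50% less growth.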 Activity calls are given as the source filed them. Cut-off read from the data, not from the text of the source: active = GI50 up to about 1.1 µM and inactive = higher.

Key:
Test in all cases: DTP human tumour cell line panel, 48 h
HT-29 = test system: HT-29
NCI/ADR-RES = test system: NCI/ADR-RES
EKVX = test system: EKVX
SK-MEL-2 = test system: SK-MEL-2
ACHN = test system: ACHN
MDA-N = test system: MDA-N
Malme-3M = test system: Malme-3M
M14 = test system: M14
NCI-H226 = test system: NCI-H226
A498 = test system: A498
IGROV-1 = test system: IGROV-1
SW-620 = test system: SW-620
SN12C = test system: SN12C
OVCAR-4 = test system: OVCAR-4
RXF 393 = test system: RXF 393
SNB-19 = test system: SNB-19
HCT-116 = test system: HCT-116
786-0 = test system: 786-0
HCT-15 = test system: HCT-15
CAKI-1 = test system: CAKI-1
SF-295 = test system: SF-295
DU-145 = test system: DU-145
SK-MEL-28 = test system: SK-MEL-28
OVCAR-8 = test system: OVCAR-8
HOP-62 = test system: HOP-62
MDA-MB-435 = test system: MDA-MB-435
HOP-92 = test system: HOP-92
SNB-75 = test system: SNB-75
Hs-578T = test system: Hs-578T
HL-60 = test system: HL-60
SK-OV-3 = test system: SK-OV-3
CCRF-CEM = test system: CCRF-CEM
OVCAR-5 = test system: OVCAR-5
UACC-62 = test system: UACC-62
LOX IMVI = test system: LOX IMVI
MDA-MB-231 = test system: MDA-MB-231
SF-268 = test system: SF-268
UACC-257 = test system: UACC-257
T47D = test system: T47D
KM12 = test system: KM12
NCI-H522 = test system: NCI-H522
OVCAR-3 = test system: OVCAR-3
SK-MEL-5 = test system: SK-MEL-5
COLO 205 = test system: COLO 205
A549 = test system: A549
SF-539 = test system: SF-539
MCF7 = test system: MCF7
RPMI-8226 = test system: RPMI-8226
HCC 2998 = test system: HCC 2998
K562 = test system: K562
TK-10 = test system: TK-10
UO-31 = test system: UO-31
NCI-H23 = test system: NCI-H23
NCI-H460 = test system: NCI-H460
BT-549 = test system: BT-549
PC-3 = test system: PC-3
U-251 = test system: U-251
MOLT-4 = test system: MOLT-4

## COc1ccc(-c2cc3c(nn2)-c2ccccc2C3=O)cc1
HT-29
  GI50: > 10 µM (inactive)
NCI/ADR-RES
  GI50: > 10 µM (inactive)
EKVX
  GI50: > 10 µM (inactive)
SK-MEL-2
  GI50: > 10 µM (inactive)
ACHN
  GI50: > 10 µM (inactive)
MDA-N
  GI50: > 10 µM (inactive)
Malme-3M
  GI50: > 10 µM (inactive)
M14
  GI50: > 10 µM (inactive)
NCI-H226
  GI50: > 10 µM (inactive)
A498
  GI50: > 10 µM (inactive)
IGROV-1
  GI50: > 10 µM (inactive)
SW-620
  GI50: > 10 µM (inactive)
SN12C
  GI50: > 10 µM (inactive)
OVCAR-4
  GI50: > 10 µM (inactive)
RXF 393
  GI50: > 10 µM (inactive)
SNB-19
  GI50: > 10 µM (inactive)
HCT-116
  GI50: 7.71 µM (inactive)
786-0
  GI50: > 10 µM (inactive)
HCT-15
  GI50: > 10 µM
CAKI-1
  GI50: > 10 µM (inactive)
SF-295
  GI50: > 10 µM (inactive)
DU-145
  GI50: > 10 µM (inactive)
SK-MEL-28
  GI50: > 10 µM (inactive)
OVCAR-8
  GI50: > 10 µM (inactive)
HOP-62
  GI50: > 10 µM (inactive)
MDA-MB-435
  GI50: > 10 µM (inactive)
HOP-92
  GI50: > 10 µM (inactive)
SNB-75
  GI50: 0.845 µM (active)
Hs-578T
  GI50: > 10 µM (inactive)
HL-60
  GI50: > 10 µM (inactive)
SK-OV-3
  GI50: > 10 µM (inactive)
CCRF-CEM
  GI50: 6.38 µM (inactive)
OVCAR-5
  GI50: > 10 µM (inactive)
UACC-62
  GI50: > 10 µM (inactive)
LOX IMVI
  GI50: > 10 µM (inactive)
MDA-MB-231
  GI50: > 10 µM (inactive)
SF-268
  GI50: > 10 µM (inactive)
UACC-257
  GI50: > 10 µM (inactive)
T47D
  GI50: > 10 µM (inactive)
KM12
  GI50: > 10 µM (inactive)
NCI-H522
  GI50: > 10 µM (inactive)
OVCAR-3
  GI50: > 10 µM (inactive)
SK-MEL-5
  GI50: > 10 µM (inactive)
COLO 205
  GI50: > 10 µM (inactive)
A549
  GI50: > 10 µM (inactive)
SF-539
  GI50: > 10 µM (inactive)
MCF7
  GI50: 8.93 µM (inactive)
RPMI-8226
  GI50: > 10 µM (inactive)
HCC 2998
  GI50: > 10 µM (inactive)
K562
  GI50: > 10 µM (inactive)
TK-10
  GI50: > 10 µM (inactive)
UO-31
  GI50: > 10 µM (inactive)
NCI-H23
  GI50: > 10 µM (inactive)
NCI-H460
  GI50: > 10 µM (inactive)
BT-549
  GI50: > 10 µM (inactive)
PC-3
  GI50: > 10 µM (inactive)
U-251
  GI50: > 10 µM (inactive)

## NNC(=O)c1ccc[n+](CCc2ccccc2)c1
HT-29
  GI50: > 100 µM (inactive)
NCI/ADR-RES
  GI50: > 100 µM (inactive)
EKVX
  GI50: > 100 µM (inactive)
ACHN
  GI50: > 100 µM (inactive)
MDA-N
  GI50: > 100 µM (inactive)
Malme-3M
  GI50: > 100 µM (inactive)
M14
  GI50: > 100 µM (inactive)
NCI-H226
  GI50: > 100 µM (inactive)
A498
  GI50: > 100 µM (inactive)
IGROV-1
  GI50: > 100 µM (inactive)
SW-620
  GI50: > 100 µM (inactive)
SN12C
  GI50: > 100 µM (inactive)
OVCAR-4
  GI50: > 100 µM (inactive)
RXF 393
  GI50: > 100 µM (inactive)
SNB-19
  GI50: > 100 µM (inactive)
HCT-116
  GI50: > 100 µM (inactive)
786-0
  GI50: > 100 µM (inactive)
HCT-15
  GI50: > 100 µM
CAKI-1
  GI50: > 100 µM (inactive)
SF-295
  GI50: > 100 µM (inactive)
DU-145
  GI50: > 100 µM (inactive)
SK-MEL-28
  GI50: > 100 µM (inactive)
OVCAR-8
  GI50: > 100 µM (inactive)
HOP-62
  GI50: > 100 µM (inactive)
MDA-MB-435
  GI50: > 100 µM (inactive)
MOLT-4
  GI50: > 100 µM (inactive)
HOP-92
  GI50: > 100 µM (inactive)
SNB-75
  GI50: > 100 µM (inactive)
Hs-578T
  GI50: > 100 µM (inactive)
HL-60
  GI50: > 100 µM (inactive)
SK-OV-3
  GI50: > 100 µM (inactive)
OVCAR-5
  GI50: > 100 µM (inactive)
UACC-62
  GI50: > 100 µM (inactive)
LOX IMVI
  GI50: > 100 µM (inactive)
MDA-MB-231
  GI50: > 100 µM (inactive)
SF-268
  GI50: > 100 µM (inactive)
UACC-257
  GI50: > 100 µM (inactive)
T47D
  GI50: > 100 µM (inactive)
KM12
  GI50: > 100 µM (inactive)
NCI-H522
  GI50: > 100 µM (inactive)
OVCAR-3
  GI50: > 100 µM (inactive)
SK-MEL-5
  GI50: > 100 µM (inactive)
COLO 205
  GI50: > 100 µM (inactive)
A549
  GI50: > 100 µM (inactive)
MCF7
  GI50: > 100 µM (inactive)
RPMI-8226
  GI50: > 100 µM (inactive)
HCC 2998
  GI50: > 100 µM (inactive)
K562
  GI50: > 100 µM (inactive)
TK-10
  GI50: > 100 µM (inactive)
UO-31
  GI50: > 100 µM (inactive)
NCI-H23
  GI50: > 100 µM (inactive)
NCI-H460
  GI50: > 100 µM (inactive)
BT-549
  GI50: > 100 µM (inactive)
PC-3
  GI50: > 100 µM (inactive)
U-251
  GI50: > 100 µM (inactive)
